Data taken from article PMC7619385 (ACS infectious diseases, 2025).
Structures can show the parent of a compound that is named as a salt. Where two headings read alike, the source gives them in different places.

Biological target: T1, LmxCLK1 (Leishmania mexicana, UniProt E9AMP2)
T1 sequence (E9AMP2 1-422): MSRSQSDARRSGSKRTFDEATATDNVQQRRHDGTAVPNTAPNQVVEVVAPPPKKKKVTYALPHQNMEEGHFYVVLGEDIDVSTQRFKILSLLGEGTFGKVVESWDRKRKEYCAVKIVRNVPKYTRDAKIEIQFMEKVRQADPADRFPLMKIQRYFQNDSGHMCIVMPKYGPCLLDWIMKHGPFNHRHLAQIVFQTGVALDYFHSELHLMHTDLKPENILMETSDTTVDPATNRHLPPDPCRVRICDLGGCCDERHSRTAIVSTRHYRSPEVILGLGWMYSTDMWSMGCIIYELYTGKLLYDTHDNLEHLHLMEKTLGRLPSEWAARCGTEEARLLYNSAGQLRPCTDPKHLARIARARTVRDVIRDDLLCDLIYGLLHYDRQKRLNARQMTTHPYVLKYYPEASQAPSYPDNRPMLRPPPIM
Assay: biochemical
Assay type: binding

[1] = DSF, 10 µM compound, 2 µM LmxCLK1, Run 1, read-out: ΔTm Run 1
[2] = DSF, 10 µM compound, 2 µM LmxCLK1, Run 2, read-out: ΔTm Run 2
[3] = DSF, 10 µM compound, 2 µM LmxCLK1, mean of two runs, read-out: ΔTm Average
[4] = DSF, 10 µM compound, 2 µM LmxCLK1, Run 1
[5] = DSF, 10 µM compound, 2 µM LmxCLK1, Run 2
[6] = DSF, 10 µM compound, 2 µM LmxCLK1, mean of two runs

In the case of `CCc1cccc(CC)c1NC(=O)N1Cc2n[nH]c(NC(=O)c3ccc(N4CCN(C)CC4)cc3)c2C1` [PHA-680632], the ΔTm at 10 µM [1] is reported as 0.7 °C, the ΔTm at 10 µM [2] is reported as 0.6 °C and the ΔTm at 10 µM [3] is reported as 0.6 °C.
`O=C1NCCc2[nH]c(-c3ccncc3)cc21` [PHA-767491] was tested, and the “ΔTm Run 1” value [4] was 0.7 °C, the “ΔTm Run 2” value [5] was 1.3 °C and the “ΔTm Average” value [6] was 1.0 °C.
Work on `CC(C)CC(=O)Nc1[nH]nc2c1CN(C(=O)C1CCN(C)CC1)C2(C)C` [PHA-793887] yielded a ΔTm at 10 µM [1] of 0.1 °C, a ΔTm at 10 µM [2] of 0 °C and a ΔTm at 10 µM [3] of 0.1 °C.
`Oc1cccc(-c2nc(N3CCOCC3)c3oc4ncccc4c3n2)c1` [PI-103] gave a ΔTm at 10 µM [1] of 0 °C, a ΔTm at 10 µM [2] of 0 °C and a ΔTm at 10 µM [3] of 0 °C.
`Cc1ccc([N+](=O)[O-])cc1S(=O)(=O)N(C)/N=C/c1cnc2ccc(Br)cn12` [PIK-75] was tested, and the ΔTm Average was 0.3 °C, the ΔTm Run 1 was 0.5 °C and the ΔTm Run 2 was 0.1 °C.
`CC(=O)Nc1nc(C)c(-c2ccc(Cl)c(S(=O)(=O)NCCO)c2)s1` [PIK-93] was tested, and the ΔTm Average was 0 °C, the ΔTm Run 1 was 0 °C and the “ΔTm Run 2” value was -0.1.
In the case of `Cc1ccccc1-n1c(Cn2ncc3c(N)ncnc32)nc2cccc(C)c2c1=O` [PIK-293], the “ΔTm Run 1” value [4] is reported as 0.1 °C, the “ΔTm Run 2” value [5] is reported as -0.2 °C and the “ΔTm Average” value [6] is reported as -0.1 °C.
`CCCS(=O)(=O)Nc1ccc(F)c(C(=O)c2c[nH]c3ncc(Cl)cc23)c1F` [PLX-4720] was tested, and the ΔTm at 10 µM [1] was -0.3 °C, the ΔTm at 10 µM [2] was -0.1 °C and the ΔTm at 10 µM [3] was -0.2 °C.
With `Cc1ccc(-c2nn(C(C)(C)C)c3ncnc(N)c23)cc1` [PP1] the ΔTm Average was 0 °C, the ΔTm Run 1 was 0.2 °C and the “ΔTm Run 2” value was -0.2.
With `NC(=O)c1cnc(N[C@@H]2CCCC[C@@H]2N)nc1Nc1cccc(-n2nccn2)c1` [PRT062607 (P505-15)] the “ΔTm Average” value was 1.3 °C, the “ΔTm Run 1” value was 1.3 °C and the “ΔTm Run 2” value was 1.3 °C.
In the case of `C1=N/C2=N/c3ccc(OCCN4CCCC4)c(c3)COC/C=C/COCc3cccc(c3)C(=C1)N2` [Pacritinib (SB1518)], the “ΔTm Run 1” value [4] is reported as 0.2 °C, the “ΔTm Run 2” value [5] is reported as 0.1 °C and the “ΔTm Average” value [6] is reported as 0.2 °C.
In the case of `CC(=O)c1c(C)c2cnc(Nc3ccc(N4CCNCC4)cn3)nc2n(C2CCCC2)c1=O.Cl` [Palbociclib (PD-0332991) HCl], the “ΔTm Run 1” value [4] is reported as 0.6 °C, the “ΔTm Run 2” value [5] is reported as 0.4 °C and the “ΔTm Average” value [6] is reported as 0.5 °C.
With `COc1ccc(COc2cc3oc(=O)c4cc(C(C)O)ccc4c3cc2OC)cc1` (stereo not drawn) [Palomid 529 (P529)] the “ΔTm Run 1” value [4] was 0.3 °C, the “ΔTm Run 2” value [5] was -0.1 °C and the “ΔTm Average” value [6] was 0.1 °C.
In the case of `Cc1ccc(Nc2nccc(N(C)c3ccc4c(C)n(C)nc4c3)n2)cc1S(N)(=O)=O.Cl` [Pazopanib HCl (GW786034 HCl)], the “ΔTm Run 1” value [4] is reported as -0.1 °C, the “ΔTm Run 2” value [5] is reported as 0.0 °C and the “ΔTm Average” value [6] is reported as -0.1 °C.
Work on `Cc1ccc(Nc2nccc(N(C)c3ccc4c(C)n(C)nc4c3)n2)cc1S(N)(=O)=O` [Pazopanib] yielded a ΔTm at 10 µM [1] of 0.1 °C, a ΔTm at 10 µM [2] of -0.4 °C and a ΔTm at 10 µM [3] of -0.2 °C.
For `[H]/N=C(/N)N/C(=N/[H])NCCc1ccccc1` [Phenformin HCl], the ΔTm at 10 µM [1] was 0 °C, the ΔTm at 10 µM [2] was -0.4 °C and the ΔTm at 10 µM [3] was -0.2 °C.
Work on `Oc1cc(O)cc(/C=C/c2ccc(O)c(O)c2)c1` [Piceatannol] yielded a ΔTm at 10 µM [1] of 0 °C, a ΔTm at 10 µM [2] of 0.1 °C and a ΔTm at 10 µM [3] of 0.1 °C.
With `O=C(NC[C@H](O)CO)c1ccncc1Nc1ccc(I)cc1F` [Pimasertib (AS-703026)] the “ΔTm Run 1” value [4] was 0.2 °C, the “ΔTm Run 2” value [5] was -0.1 °C and the “ΔTm Average” value [6] was 0.0 °C.
In the case of `Cc1ccc(C(=O)Nc2ccc(CN3CCN(C)CC3)c(C(F)(F)F)c2)cc1C#Cc1cnc2cccnn12` [Ponatinib (AP24534)], the “ΔTm Run 1” value [4] is reported as 0.0 °C, the “ΔTm Run 2” value [5] is reported as -0.1 °C and the “ΔTm Average” value [6] is reported as -0.1 °C.
In the case of `O=c1c(O)c(-c2ccc(O)c(O)c2)oc2cc(O)cc(O)c12` [Quercetin], the ΔTm at 10 µM [1] is reported as 0.5 °C, the ΔTm at 10 µM [2] is reported as 0.6 °C and the ΔTm at 10 µM [3] is reported as 0.5 °C.
With `CC(C)(C)c1cc(NC(=O)Nc2ccc(-c3cn4c(n3)sc3cc(OCCN5CCOCC5)ccc34)cc2)no1` [Quizartinib (AC220)] the ΔTm at 10 µM [1] was 0.3 °C, the ΔTm at 10 µM [2] was 0.2 °C and the ΔTm at 10 µM [3] was 0.3 °C.
In the case of `COc1cc(Nc2ncc(F)c(Nc3ccc4c(n3)NC(=O)C(C)(C)O4)n2)cc(OC)c1OC` [R406 (free base)], the “ΔTm Run 1” value [4] is reported as 0.0 °C, the “ΔTm Run 2” value [5] is reported as 0.0 °C and the “ΔTm Average” value [6] is reported as 0.0 °C.
In the case of `COc1ccc(F)c(F)c1C(=O)c1cnc(NC2CCN(S(C)(=O)=O)CC2)nc1N` [R547], the “ΔTm Average” value is reported as -0.2, the ΔTm Run 1 is reported as 0 °C and the “ΔTm Run 2” value is reported as -0.4.
In the case of `Cn1c(Nc2ccc(C(F)(F)F)cc2)nc2cc(Oc3ccnc(-c4ncc(C(F)(F)F)[nH]4)c3)ccc21` [RAF265 (CHIR-265)], the “ΔTm Run 1” value [4] is reported as -0.1 °C, the “ΔTm Run 2” value [5] is reported as -0.3 °C and the “ΔTm Average” value [6] is reported as -0.2 °C.
`O=C(NCc1cccc(O)c1)Nc1nc(-c2ccncc2)cs1` [RKI-1447] was tested, and the “ΔTm Run 1” value [4] was -0.1 °C, the “ΔTm Run 2” value [5] was -0.1 °C and the “ΔTm Average” value [6] was -0.1 °C.
`CO[C@H]1C[C@@H]2CC[C@@H](C)[C@@](O)(O2)C(=O)C(=O)N2CCCC[C@H]2C(=O)O[C@H]([C@H](C)C[C@@H]2CC[C@@H](O)[C@H](OC)C2)CC(=O)[C@H](C)/C=C(\C)[C@@H](O)[C@@H](OC)C(=O)[C@H](C)C[C@H](C)/C=C/C=C/C=C/1C` [Rapamycin (Sirolimus)] gave a ΔTm at 10 µM [1] of 0.3 °C, a ΔTm at 10 µM [2] of -0.1 °C and a ΔTm at 10 µM [3] of 0.1 °C.
With `CO[C@H]1C[C@@H]2CC[C@@H](C)[C@@](O)(O2)C(=O)C(=O)N2CCCC[C@H]2C(=O)O[C@H]([C@H](C)C[C@@H]2CC[C@@H](OP(C)(C)=O)[C@H](OC)C2)CC(=O)[C@H](C)/C=C(\C)[C@@H](O)[C@@H](OC)C(=O)[C@H](C)C[C@H](C)/C=C/C=C/C=C/1C` [Ridaforolimus (Deforolimus)] the “ΔTm Run 1” value [4] was 0.0 °C, the “ΔTm Run 2” value [5] was 0.0 °C and the “ΔTm Average” value [6] was 0.0 °C.
In the case of `COc1cc(OC)c(/C=C/S(=O)(=O)Cc2ccc(OC)c(NCC(=O)O)c2)c(OC)c1` [Rigosertib (ON-01910)], the “ΔTm Run 1” value [4] is reported as -0.2 °C, the “ΔTm Run 2” value [5] is reported as -0.4 °C and the “ΔTm Average” value [6] is reported as -0.3 °C.
With `CS(=O)(=O)O.Cn1cc(C2=C(c3cn(CCCSC(=N)N)c4ccccc34)C(=O)NC2=O)c2ccccc21` [Ro 31-8220 Mesylate] the “ΔTm Run 1” value [4] was 1.1 °C, the “ΔTm Run 2” value [5] was 1.6 °C and the “ΔTm Average” value [6] was 1.3 °C.
In the case of `N#CC[C@H](C1CCCC1)n1cc(-c2ncnc3[nH]ccc23)cn1` [Ruxolitinib (INCB018424)], the ΔTm at 10 µM [1] is reported as 0.9 °C, the ΔTm at 10 µM [2] is reported as 1.1 °C and the ΔTm at 10 µM [3] is reported as 1 °C.
